In patent publication US20240391940A1, “FUSED RING-CONTAINING COMPOUND, APPLICATION THEREOF, AND COMPOSITION CONTAINING SAME” (GenEros Biopharma Ltd., priority 2020, published 2024):
Several values for one entry are separate records, joined by “and”; a condition that tells them apart may be missing. Identical values can stand only once. Like-named read-outs stand apart in the source and are kept apart here.

Key:
[1] = system: adjuvant arthritis (AIA) rat model; test: Rat AIA (adjuvant arthritis) model; format: in vivo, Lewis rats; details: AIA rats, 10 mg/kg daily from day 9, individual animals, 10 mg/kg; for Hind paw volume: in mL (unit assumed)
[2] = system: collagen-induced arthritis (CIA) mouse model; details: CIA mice; for clinical score: Tofacitinib 10 mg/kg p.o. BID from day 28; for clinical score / body weight: Mean ± SEM; for body weight: Tofacitinib 10 mg/kg
[3] = system: collagen-induced arthritis (CIA) mouse model; test: Mouse CIA model, repeated for dose exploration (10, 30, 50 mg/kg); details: for Significance of clinical score vs. Vehicle group (Two-way ANOVA): Tofacitinib BID; for Changes in body weight, Mean ± SEM / Clinical scores, Mean ± SEM / Clinical scores: significance vs. solvent control group, two-way ANOVA: G2 Tofacitinib 10 mg/kg
Excerpt: Testing was repeated for dose exploration
The above method was used.

In the case of `C[C@@H]1CCN(C(=O)CC#N)C[C@@H]1N(C)c1ncnc2[nH]ccc12` [Tofacitinib, reference compound], the “body weight” value ([1]; day 9) is reported as 167 g (2×) and 156 g and 146 g and 168 g and 151 g and 154 g and 161 g, the clinical scores ([1]; day 9) is reported as 1 and 0 (7×) and the Hind paw volume ([1]; day 9) is reported as 2.1 and 1.42 and 1.4 and 1.35 and 1.24 and 1.1. For the same compound, the “body weight” value ([1]; day 10) was 165 g and 153 g and 142 g and 168 g and 150 g and 152 g and 160 g and 166 g, the “body weight” value ([1]; day 11) was 162 g and 154 g and 140 g and 166 g and 145 g and 151 g and 158 g and 167 g and the clinical scores ([1]; day 11) was 1.5 and 0.5 (4×) and 0 (2×) and 0.25. For the same compound, the Hind paw volume ([1]; day 11) was 2 and 1.23 and 1.03 and 1.53 and 1.02 and 1.46 and 1.01, the “body weight” value ([1]; day 12) was 155 g (2×) and 149 g (2×) and 136 g and 159 g and 145 g and 168 g and the “body weight” value ([1]; day 13) was 154 g (2×) and 148 g and 136 g and 157 g and 140 g and 167 g and 150 g. For the same compound, the clinical scores ([1]; day 13) was 3.3 and 1 (3×) and 1.5 and 0.5 and 1.2 and 0.7, the Hind paw volume ([1]; day 13) was 2.59 and 1.92 and 1.72 and 1.16 and 1.39 and 1.11 and 1.83 and 1.47 and the “body weight” value ([1]; day 14) was 151 g and 144 g and 135 g and 154 g and 140 g and 147 g and 153 g and 164 g. The “body weight” value ([1]; day 15) was 150 g and 145 g and 134 g and 152 g and 139 g and 146 g and 151 g and 162 g, the clinical scores ([1]; day 15) was 3.5 and 3 and 2 (2×) and 1.5 and 2.5 and 0.8 and 0.7 and the Hind paw volume ([1]; day 15) was 2.54 and 2.22 and 1.31 and 1.33 and 1.65 and 2.45 and 1.18. For the same compound, the “body weight” value ([1]; day 16) was 153 g and 142 g and 136 g and 152 g and 141 g and 145 g and 147 g and 160 g, the “body weight” value ([1]; day 17) was 156 g and 147 g and 138 g and 151 g and 142 g and 146 g (2×) and 163 g and the clinical scores ([1]; day 17) was 3 and 2 (2×) and 1.8 and 1.5 and 2.3 and 1.3 and 0.3. The Hind paw volume ([1]; day 17) was 2.5 and 2.45 and 2.08 and 1.17 and 2.21 and 1.73 and 2.16 and 0.94, the “body weight” value ([1]; day 18) was 155 g and 148 g (3×) and 141 g and 151 g and 143 g and 164 g and the “body weight” value ([1]; day 19) was 160 g and 151 g and 144 g and 159 g and 145 g and 153 g and 154 g and 166 g. The clinical scores ([1]; day 19) was 2.8 and 2 and 1.3 (2×) and 0.3 and 1.5 and 1 and 0, the Hind paw volume ([1]; day 19) was 2.81 and 2.85 and 1.96 and 1.46 and 2.31 and 1.83 and 1.42 and the “body weight” value ([1]; day 20) was 159 g and 150 g and 136 g and 160 g and 145 g and 152 g and 153 g and 165 g. For the same compound, the “body weight” value ([1]; day 21) was 161 g and 150 g and 148 g and 162 g, the clinical scores ([1]; day 21) was 2 and 1.5 (2×) and 1.3 (2×) and 0 (2×) and 1 and the Hind paw volume ([1]; day 21) was 2.49 and 2.2 and 2.17 and 1.18 and 1.96 and 1.22. For the same compound, the clinical scores ([1]; day 23) was 3 and 1 (4×) and 6 and 0.5 and 0, the Hind paw volume ([1]; day 23) was 2.74 and 1.9 and 1.91 and 1.23 and 1.17 and 1.64 and 1.92 and 1.18 and the clinical score ([2]; day 21) was 0.0 ± 0.00. The clinical score ([2]; day 25) was 0.3 ± 0.16, the clinical score ([2]; day 28) was 0.8 ± 0.31 and the clinical score ([2]; day 29) was 1.0 ± 0.42. It also gave a clinical score ([2]; day 32) of 1.8 ± 0.49, a clinical score ([2]; day 34) of 2.5 ± 0.65 and a clinical score ([2]; day 36) of 2.8 ± 0.75. It also gave a clinical score ([2]; day 39) of 3.4 ± 0.80, a clinical score ([2]; day 41) of 3.5 ± 0.87 and a body weight ([2]; day 21) of 20.39 ± 0.43. For the same compound, the body weight ([2]; day 25) was 20.54 ± 0.45, the body weight ([2]; day 28) was 20.63 ± 0.49 and the body weight ([2]; day 29) was 20.2 ± 0.44. For the same compound, the body weight ([2]; day 32) was 19.91 ± 0.50, the body weight ([2]; day 34) was 20.39 ± 0.44 and the body weight ([2]; day 36) was 20.26 ± 0.43. For the same compound, the body weight ([2]; day 39) was 20.31 ± 0.34, the body weight ([2]; day 41) was 21.04 ± 0.44 and the “Effect on symptoms of arthritis and lesions in tissues” value ([2]; positive control tofacitinib) was “significant improving effect on the symptoms of arthritis and lesions in tissues”. The “Joint histopathology (H&E staining)” value ([2]; tofacitinib 10 mg/kg) was “no significant lesions in joint tissues”, the “Day on which significant inhibition of the score of arthritis began” value ([2]; tofacitinib 10 mg/kg BID) was 34 days and the “Significance of clinical score vs. Vehicle group (Two-way ANOVA)” value ([3]; CIA mice, Day 35) was “** (**P < 0.01)”. The “Significance of clinical score vs. Vehicle group (Two-way ANOVA)” value ([3]; CIA mice, Day 38) was “*** (***P < 0.001)”, the “Significance of clinical score vs. Vehicle group (Two-way ANOVA)” value ([3]; CIA mice, Day 40) was “**** (****P < 0.0001)” and the “Significance of clinical score vs. Vehicle group (Two-way ANOVA)” value ([3]; CIA mice, Day 42) was “**** (****P < 0.0001)”. For the same compound, the “Effect on symptoms of arthritis and lesions in tissues” value ([3]; CIA mice, positive control tofacitinib) was “significant improving effect on the symptoms of arthritis and lesions in tissues”, the “Changes in body weight, Mean ± SEM” value ([3]; Day 21) was 20.41 ± 0.27 and the “Clinical scores, Mean ± SEM” value ([3]; Day 21) was 0.0 ± 0.00. The “Changes in body weight, Mean ± SEM” value ([3]; Day 24) was 19.69 ± 0.37, the “Clinical scores, Mean ± SEM” value ([3]; Day 24) was 0.0 ± 0.00 and the “Changes in body weight, Mean ± SEM” value ([3]; Day 26) was 19.59 ± 0.36. For the same compound, the “Clinical scores, Mean ± SEM” value ([3]; Day 26) was 0.3 ± 0.16, the “Changes in body weight, Mean ± SEM” value ([3]; Day 28) was 19.25 ± 0.50 and the “Clinical scores, Mean ± SEM” value ([3]; Day 28) was 0.6 ± 0.18. The “Changes in body weight, Mean ± SEM” value ([3]; Day 31) was 18.98 ± 0.53, the “Clinical scores, Mean ± SEM” value ([3]; Day 31) was 1.8 ± 0.37 and the “Changes in body weight, Mean ± SEM” value ([3]; Day 33) was 19.14 ± 0.43. The “Clinical scores, Mean ± SEM” value ([3]; Day 33) was 3.1 ± 0.52, the “Changes in body weight, Mean ± SEM” value ([3]; Day 35) was 19.03 ± 0.46 and the “Clinical scores, Mean ± SEM” value ([3]; Day 35) was 3.6 ± 0.56. The “Clinical scores: significance vs. solvent control group, two-way ANOVA” value ([3]; Day 35) was “** (** p < 0.01)”, the “Changes in body weight, Mean ± SEM” value ([3]; Day 38) was 18.98 ± 0.45 and the “Clinical scores, Mean ± SEM” value ([3]; Day 38) was 4.6 ± 0.75. For the same compound, the “Clinical scores: significance vs. solvent control group, two-way ANOVA” value ([3]; Day 38) was “*** (*** p < 0.001)”, the “Changes in body weight, Mean ± SEM” value ([3]; Day 40) was 19.56 ± 0.32 and the “Clinical scores, Mean ± SEM” value ([3]; Day 40) was 5.1 ± 0.90. For the same compound, the “Clinical scores: significance vs. solvent control group, two-way ANOVA” value ([3]; Day 40) was “**** (**** p <0.0001)”, the “Changes in body weight, Mean ± SEM” value ([3]; Day 42) was 19.69 ± 0.40 and the “Clinical scores, Mean ± SEM” value ([3]; Day 42) was 5.5 ± 0.87. For the same compound, the “Clinical scores: significance vs. solvent control group, two-way ANOVA” value ([3]; Day 42) was “**** (**** p <0.0001)”.
